Test results: patent US11427586B2, “1,2,4-oxadiazole derivatives as liver X receptor agonists” (NOVARTIS AG, priority 2019, dated 2022)
Read-outs that look alike come from different tables or passages of the source.

Experiments:
SCD1 = assay: Measurement of SCD1 expression in SZ95-SCD1-HiBit cells (HiBiT assay); type: cell-based; conditions: Homo sapiens; for EC50: read-out: HiBit EC50
Description: Measurement of SCD1 Expression in SZ95-SCD1-HiBit Cells
SCD1 expression levels in SZ95 cells were quantitated using the HiBiT system (Promega) in which a small peptide sequence (SmBiT) with a larger protein (LgBiT) reconstitutes luciferase activity and can generate a luminescent signal used for quantitation. SZ95-SCD1-HiBit cells were generated by editing the SCD1 gene of SZ95 cells resulting in the addition of an 8 amino acid linker sequence (gssggssg, SEQ ID NO:1) followed by an 11-amino acid SmBiT sequence (vsgwrlfkkis, SEQ ID NO:2) at the carboxy-terminus of the SCD1 protein. The gRNA targeting sequence used was […] (SEQ ID NO: 3) and the SCD1 insertion oligonucleotide encoding the SmBiT sequence was:
SZ95-SCD1-HiBit cells were seeded in 384-well cell culture white plates at a density of 3000 cells/30 μl. Water was added to edge wells to avoid evaporation. Cells were incubated in a humidified incubator with 5% CO2 at 37° C. overnight. Tested compounds were diluted at a ratio of 1:3 in DMSO using an Agilent BRAVO Automated Liquid Handling Platform and, after further serial dilutions, added to cells at final concentrations starting from 18 μM. 2-(3-(3-((2-chloro-3-(trifluoromethyl)benzyl)(2,2-diphenylethyl)amino)propoxy)phenyl)acetic acid was used as a reference compound in each plate. Cells in the assay plate were incubated in a humidified incubator with 5% CO2 at 37° C. for 48 h.
The assay plates were removed from the incubator and allowed to equilibrate to room temperature. Nano-Glo® HiBiT Detection Reagent (Promega; a mixture of Nano-Glo HiBiT Detection Buffer, Nano-Glo HiBiT Detection Substrate, and LgBiT protein, according to the manufacturer's instructions) was added into assay plates, at a volume equal to cell culture medium in each well. Plates were placed on an orbital shaker at a speed of 300-600 rpm for 10 min at room temperature, and read on an EnVision Plate Reader using luminescence detection with a 1 second read time.
The assay measures the increase in SCD1 protein production in vitro. Amax refers to the percent EC50 of the tested compound compared to a reference compound, 2-(3-(3-((2-chloro-3-(trifluoromethyl)benzyl)(2,2-diphenylethyl)amino)propoxy)phenyl)acetic acid.

SZ95 sebocytes = assay: Sentinel Lipid Assay (SLA), desaturation index in SZ95 sebocytes; type: cell-based; conditions: Homo sapiens, 72 h; for EC50: read-out: SLA EC50
Method: Sentinel Lipid Assay (SLA)
The sentinel lipid assay was used quantify the change in the global desaturation index in SZ95 sebocytes upon administration of certain LXR agonist compounds provided herein. The assay measures a smaller subset of lipid analytes in meibum (termed “sentinel lipids”) which would model the global changes the population of both saturated and desaturated lipids in the cells. In order to define this smaller subset of lipids, a complete lipid profile was recorded on dose response curves (eight levels from 4 nM to 10 uM) of Compounds 1-72. An elastic net regression model was applied separately to both the saturated and desaturated lipids to determine the minimum combination of coefficients and analytes, which could be used to adequately model the total population of lipids. The elastic net model was able to reduce the behavior of 425 lipids to 11 lipids and the correlation between the desaturation indices observed using the complete set of lipids with from the 11 sentinel lipids was 0.96.
A medium throughput assay was created using this reduced set of sentinel lipids. A single batch is defined as triplicate examples of three unique plates (i.e., a single batch of cells is used to create nine plates for LC-MSMS analysis). Lipids were extracted from the cells using a 1:1 mixture of methylene chloride/methanol containing 10 nM of deuterated standards of triglycerides, which are used as internal standards for quantitating the lipid abundance. The lipids were separated prior to mass spectrometric analysis using a five minute HPLC gradient. The abundance of the sentinel lipids and the internal standards are measured using multiple reaction monitor mode (MRM) on a triple quadrupole mass spectrometer. The data was transformed from total ion current to nmoles/10^6 cells, which are multiplied by the coefficients from the elastic net model to determine the effective desaturated and saturated content, and therein the desaturation index of the dosed cells. In order to compare compounds from multiple batches with one another, the measure raw desaturation index was normalized by dividing it by the desaturation index of the DMSO dosed cells, and all data was assessed as the fraction by which the compound increases the desaturation index above 1.
SZ95 (immortalized human sebaceous gland cells) cells were seeded in Greiner bio-one 96-well polypropylene plates that were pre-treated with 50 μg/mL Human Plasma Fibronectin (Thermo Fisher Scientific) at a density of 10^4 cells/135 μl. Cells were incubated in a humidified incubator with 5% CO2 at 37° C. overnight. Test compounds were diluted at a ratio of 1:3 and added to cells at final concentrations starting from 10 μM. 2-(3-(3-((2-chloro-3-(trifluoromethyl)benzyl)(2,2-diphenylethyl)amino)propoxy)phenyl)acetic acid was used as a positive control reference compound in each plate. Cells in the assay plate were incubated in a humidified incubator with 5% CO2 at 37° C. for 72 h.
Culture medium was removed from the cells and cells in culture plates were washed with ice cold phosphate buffered saline three times. Plates were heat sealed and stored in a −80° C. freezer prior to Sentinel lipid assay. The Amax value refers to the percent EC50 of the tested compound compared to a reference compound, 2-(3-(3-((2-chloro-3-(trifluoromethyl)benzyl)(2,2-diphenylethyl)amino)propoxy)phenyl)acetic acid.

[1] = 48 h, normalized Amax based on the reference compound Amax of 100%, read-out: HiBit Normalized Amax
[2] = SZ95-SCD1-HiBit cells, 48 h, SCD1 protein production, luminescence, initial dilution 1:3 in DMSO
[3] = SZ95-SCD1-HiBit cells, 48 h, compared to reference compound, read-out: HiBit Amax
[4] = normalized Amax based on the reference compound Amax of 100%, read-out: SLA Normalized Amax
[5] = SZ95 cells, desaturation index, lowest dose used 4.6 nM
[6] = SZ95 cells, compared to reference compound, read-out: SLA Amax
[7] = footnote a: initial dilution for the compound 1:100 in assay medium rather than 1:3 in DMSO

SMILES | EC50 (SCD1; [2]) | EC50 (SZ95 sebocytes; [5]) | EC50 (SCD1; [7]) | Emax (SCD1; [1]) | Emax (SCD1; [3]) | Emax (SZ95 sebocytes; [4]) | Emax (SZ95 sebocytes; [6]) | Emax (SZ95 sebocytes; read-out: SLA Amax) | EC50 (SZ95 sebocytes) | Emax (SZ95 sebocytes; read-out: SLA Normalized Amax)
CC1(C)C(=O)N(Cc2nc(-c3ccc(OCC(C)(C(F)(F)F)C(F)(F)F)c(C(F)(F)F)c3)no2)C(=O)N1CCC1CCOCC1 [Compound 1, 5,5-dimethyl-1-(2-(tetrahydro-2H-pyran-4-yl)ethyl)-3-((3-(4-(3,3,3-trifluoro-2-methyl-2-(trifluoromethyl)propoxy)-3-(trifluoromethyl)phenyl)-1,2,4-oxadiazol-5-yl)methyl)imidazolidine-2,4-dione] | 0.496 nM | ≤ 4.6 nM |  | 91.7% | 87.2% | 87.1% | 83.6% |  |  | 
CC(C)CS(=O)(=O)c1ccccc1Oc1ccc(-c2noc(CN3C(=O)N(CCN4CCOCC4)C4(CCCCC4)C3=O)n2)cc1C(F)(F)F [Compound 3, 3-((3-(4-(2-(isobutylsulfonyl)phenoxy)-3-(trifluoromethyl)phenyl)-1,2,4-oxadiazol-5-yl)methyl)-1-(2-morpholinoethyl)-1,3-diazaspiro[4.5]decane-2,4-dione] | 1.24 nM | ≤ 4.6 nM |  | 78.5% | 74.7% | 117% | 112% |  |  | 
CC1(C)C(=O)N(Cc2nc(-c3ccc(Oc4ccccc4S(=O)(=O)C4CCOC4)c(C(F)(F)F)c3)no2)C(=O)N1CCC1CCOCC1 (stereo not drawn) [Compound 59, 5,5-dimethyl-1-(2-(tetrahydro-2H-pyran-4-yl)ethyl)-3-((3-(4-(2-((tetrahydrofuran-3-yl)sulfonyl)phenoxy)-3-(trifluoromethyl)phenyl)-1,2,4-oxadiazol-5-yl)methyl)imidazolidine-2,4-dione] |  | ≤ 4.6 nM |  |  |  | 140% | 135% |  |  | 
CC(C)CS(=O)(=O)c1ccccc1Oc1ccc(-c2noc(CN3C(=O)N(CCN4CCOCC4)C(C)(CN(C)C)C3=O)n2)cc1C(F)(F)F (stereo not drawn) [Compound 60, 5-((dimethylamino)methyl)-3-((3-(4-(2-(isobutylsulfonyl)phenoxy)-3-(trifluoromethyl)phenyl)-1,2,4-oxadiazol-5-yl)methyl)-5-methyl-1-(2-morpholinoethyl)imidazolidine-2,4-dione] |  |  |  |  |  |  |  | 170% | ≤ 4.6 nM | 177%
CC1(C)C(=O)N(Cc2nc(-c3ccc(Oc4ccccc4S(=O)(=O)CCN(CCO)CCO)c(C(F)(F)F)c3)no2)C(=O)N1CCN1CCOCC1 [Compound 62, 3-((3-(4-(2-((2-(bis(2-hydroxyethyl)amino)ethyl)sulfonyl)phenoxy)-3-(trifluoromethyl)phenyl)-1,2,4-oxadiazol-5-yl)methyl)-5,5-dimethyl-1-(2-morpholinoethyl)imidazolidine-2,4-dione] |  | 9.7 nM |  |  |  | 154% | 148% |  |  | 
CC(C)CS(=O)(=O)c1ccccc1Oc1ccc(-c2noc(CN3C(=O)N(CCN4CCOCC4)C4(CCN(C(=O)CCC(=O)O)CC4)C3=O)n2)cc1C(F)(F)F [Compound 68, 4-(3-((3-(4-(2-(isobutylsulfonyl)phenoxy)-3-(trifluoromethyl)phenyl)-1,2,4-oxadiazol-5-yl)methyl)-1-(2-morpholinoethyl)-2,4-dioxo-1,3,8-triazaspiro[4.5]decan-8-yl)-4-oxobutanoic acid] |  |  | 4.6 nM | 84% | 79.9% |  |  |  |  | 
O=C(O)CCCCC(=O)N1CCC2(CC1)C(=O)N(Cc1nc(-c3ccc(Oc4ccccc4C(F)(F)F)c(C(F)(F)F)c3)no1)C(=O)N2CCN1CCOCC1 [Compound 69, 6-(1-(2-morpholinoethyl)-2,4-dioxo-3-((3-(3-(trifluoromethyl)-4-(2-(trifluoromethyl)phenoxy)phenyl)-1,2,4-oxadiazol-5-yl)methyl)-1,3,8-triazaspiro[4.5]decan-8-yl)-6-oxohexanoic acid] | 0.665 nM |  |  | 76.4% | 72.7% |  |  |  |  | 

Continued, in another order:

EC50 (SCD1; [2]) | EC50 (SZ95 sebocytes; [5]) | EC50 (SCD1; [7]) | SMILES | Emax (SCD1; [1]) | Emax (SCD1; [3]) | Emax (SZ95 sebocytes; [4]) | Emax (SZ95 sebocytes; [6]) | Emax (SZ95 sebocytes; read-out: SLA Amax) | EC50 (SZ95 sebocytes) | Emax (SZ95 sebocytes; read-out: SLA Normalized Amax)
1.5 nM | ≤ 4.6 nM |  | CCCC1(C)C(=O)N(Cc2nc(-c3ccc(Oc4ccccc4S(=O)(=O)CC(C)C)c(C(F)(F)F)c3)no2)C(=O)N1CCN1CCOCC1 (stereo not drawn) [Compound 2, 3-((3-(4-(2-(isobutylsulfonyl)phenoxy)-3-(trifluoromethyl)phenyl)-1,2,4-oxadiazol-5-yl)methyl)-5-methyl-1-(2-morpholinoethyl)-5-propylimidazolidine-2,4-dione] | 95.2% | 90.5% | 190% | 182% |  |  | 
 | ≤ 4.6 nM |  | CC(C)CS(=O)(=O)c1ccccc1Oc1ccc(-c2noc(CN3C(=O)N(CCC4CCOCC4)C(C)(C)C3=O)n2)cc1C(F)(F)F [Compound 4, 3-((3-(4-(2-(isobutylsulfonyl)phenoxy)-3-(trifluoromethyl)phenyl)-1,2,4-oxadiazol-5-yl)methyl)-5,5-dimethyl-1-(2-(tetrahydro-2H-pyran-4-yl)ethyl)imidazolidine-2,4-dione] |  |  | 152% | 146% |  |  | 
 |  | 255 nM | CC(C)CS(=O)(=O)c1ccccc1Oc1ccc(-c2noc(CN3C(=O)NC(C)(C)C3=O)n2)cc1C(F)(F)F [Compound 50a, 3-((3-(4-(2-(isobutylsulfonyl)phenoxy)-3-(trifluoromethyl)phenyl)-1,2,4-oxadiazol-5-yl)methyl)-5,5-dimethylimidazolidine-2,4-dione] | 70.5% | 67% |  |  |  |  | 
 | 99.2 nM |  | CC1(C)NC(=O)N(Cc2nc(-c3ccc(Oc4ccccc4SC(F)(F)F)c(C(F)(F)F)c3)no2)C1=O [Compound 70, 5,5-dimethyl-3-((3-(3-(trifluoromethyl)-4-(2-((trifluoromethyl)thio)phenoxy)phenyl)-1,2,4-oxadiazol-5-yl)methyl)imidazolidine-2,4-dione] |  |  | 67.4% | 64.7% |  |  | 
 | 29.8 nM |  | CN1C(=O)N(Cc2nc(-c3ccc(Oc4ccccc4C(F)(F)F)c(C(F)(F)F)c3)no2)C(=O)C1(C)C [Compound 72, 1,5,5-trimethyl-3-((3-(3-(trifluoromethyl)-4-(2-(trifluoromethyl)phenoxy)phenyl)-1,2,4-oxadiazol-5-yl)methyl)imidazolidine-2,4-dione] |  |  | 82.8% | 79.5% |  |  | 
